For 13 compounds, GI50 and TGI results are on record in PubChem BioAssay (NCI).

Test systems include A498 renal; ACHN renal; HOP-92 NSCLC; K-562 leukemia; M14 melanoma; MALME-3M melanoma; NCI/ADR-RES ovarian; SK-MEL-2 melanoma; SW-620 colon; UO-31 renal.
Common to all, as to assay: NCI tumour cell line growth inhibition, 48 h

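In this assay, cells in 96-well plates receive the compound at five concentrations for 48 hours. Endpoints are linearly interpolated between the surrounding concentrations. GI50 marks 50% less growth. The concentration for full growth arrest is given as TGI.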 Some results are limits rather than exact numbers.

`CC1OC(O[C@H]2/C=C/C=C/C=C/C=C/C=C/C=C/C=C/[C@H](C)[C@@H](O)[C@@H](C)[C@H](C)OC(=O)CC(O)CC(O)CCC(O)C(O)CC(O)C[C@]3(O)C[C@H](O)C(C(=O)O)C(C2)O3)C(O)[C@H](N)C1O` (some centres undefined): the GI50 in the test on A498 renal is 12 µM; in the test with ACHN renal it was 1.68 µM; in the test with HOP-92 NSCLC it was 3.16 µM; in the test on K-562 leukemia, 30.1 µM; in the test on M14 melanoma, 2.57 µM; with MALME-3M melanoma it was 1.88 µM. For the same compound, the GI50 in the test on NCI/ADR-RES ovarian was 2.1 µM; with SK-MEL-2 melanoma, 3.9 µM; in the test with SW-620 colon, 2.58 µM; in the test on UO-31 renal it was 1.4 µM. Besides, the TGI with A498 renal was 25.9 µM; in the test on ACHN renal, 3.18 µM; with HOP-92 NSCLC it was 15.6 µM; with K-562 leukemia it was greater than 100 µM; in the test on M14 melanoma, 5.96 µM; in the test with MALME-3M melanoma, 3.68 µM. For the same compound, the TGI in the test with NCI/ADR-RES ovarian is 5.16 µM; in the test on SK-MEL-2 melanoma it was 12 µM; in the test on SW-620 colon it was 7.73 µM; in the test with UO-31 renal, 2.76 µM.

Take `Cc1ccc(/C=C2\CCCC(CN3CCCCC3)C2=O)cc1` (centres undefined): the TGI in the test on A498 renal is 26.1 µM; in the test on ACHN renal, 16.4 µM; in the test with HOP-92 NSCLC, 4.04 µM; in the test with K-562 leukemia, greater than 100 µM; in the test with MALME-3M melanoma, 5.98 µM; in the test on NCI/ADR-RES ovarian, 42.5 µM. Moreover, the TGI with SK-MEL-2 melanoma worked out at 9.91 µM; in the test with SW-620 colon, 3.14 µM; with UO-31 renal, 3.58 µM.

Regarding `Cc1ccc2c(=O)cc(-c3ccc(-c4ccccc4)s3)[nH]c2n1`, the TGI with A498 renal is 72.7 µM; in the test with ACHN renal, greater than 100 µM; in the test with HOP-92 NSCLC, greater than 85.6 µM; in the test with K-562 leukemia, greater than 100 µM; with M14 melanoma, greater than 100 µM; with MALME-3M melanoma, greater than 81.1 µM. The TGI in the test on NCI/ADR-RES ovarian is greater than 100 µM; in the test with SK-MEL-2 melanoma, greater than 100 µM; in the test with SW-620 colon, greater than 100 µM; in the test on UO-31 renal, 0.219 µM.

Consider `O=C(O)CNC(=O)c1c2ccccc2nc2ccccc12`, for which the TGI with A498 renal, in the test on ACHN renal, in the test with HOP-92 NSCLC, with K-562 leukemia, in the test with M14 melanoma and in the test on MALME-3M melanoma was greater than 100 µM in each case. Further, the TGI in the test with NCI/ADR-RES ovarian, in the test with SK-MEL-2 melanoma, in the test with SW-620 colon and in the test with UO-31 renal was greater than 100 µM each time.

Turning to `COC(=O)C1=C(OC(=O)c2ccccc2)C(C(=O)OC)[C@]2(O)[C@@H](C(=O)OC)[C@H]1C[C@@H](c1ccccc1)[C@@H]2C(=O)OC` (some centres undefined), the TGI with A498 renal is 64.1 µM; in the test with ACHN renal it was 72.4 µM; in the test on HOP-92 NSCLC, 27.3 µM; in the test with K-562 leukemia it was 18 µM; in the test with M14 melanoma, 9.57 µM; with MALME-3M melanoma, 52.1 µM. The TGI in the test on NCI/ADR-RES ovarian stood at 14.1 µM; in the test on SK-MEL-2 melanoma it was 13.9 µM; in the test with SW-620 colon, 40.1 µM; in the test on UO-31 renal, 10.1 µM.

`CCOC(=O)CSc1nnc(C(Sc2nc(-c3ccccc3)c(-c3ccccc3)[nH]2)C(C)C)n1-c1ccccc1` (centres undefined): the TGI in the test with A498 renal was greater than 10 µM; in the test with ACHN renal, greater than 31.6 µM; in the test on HOP-92 NSCLC, greater than 10 µM; with K-562 leukemia, greater than 100 µM; with M14 melanoma, 20.1 µM; with MALME-3M melanoma it was 28.3 µM. The TGI is 84 µM in the test on NCI/ADR-RES ovarian, 22.9 µM in the test with SK-MEL-2 melanoma, greater than 31.6 µM with SW-620 colon and greater than 31.6 µM in the test with UO-31 renal.

As for `Cc1cc(O)c(C(C)C)cc1C1(c2cc(C(C)C)c(O)cc2C)OC(=O)c2ccccc21`, the TGI in the test with A498 renal came out at 7.1 µM; with ACHN renal, 8.99 µM; in the test with HOP-92 NSCLC, 7.78 µM; in the test on K-562 leukemia it was 3.25 µM; with M14 melanoma, 3.15 µM; with MALME-3M melanoma, 5.21 µM. Besides, the TGI in the test on NCI/ADR-RES ovarian worked out at 12 µM; in the test with SK-MEL-2 melanoma, 3.28 µM; in the test on SW-620 colon, 4.57 µM; with UO-31 renal, 7.04 µM.

As to `N#C/C(=C\c1c[nH]c2ccccc12)C(=O)c1ccc(O)c(O)c1`, the TGI with A498 renal is greater than 100 µM; in the test on ACHN renal, greater than 94.3 µM; with HOP-92 NSCLC it was 99.2 µM; in the test on K-562 leukemia, greater than 67 µM; with M14 melanoma it was greater than 100 µM; in the test with MALME-3M melanoma it was greater than 78.8 µM. Moreover, the TGI was 70.1 µM in the test on NCI/ADR-RES ovarian, greater than 80.3 µM in the test on SK-MEL-2 melanoma, greater than 100 µM in the test on SW-620 colon and 45.9 µM in the test with UO-31 renal.

With `Brc1ccc(-c2cn3ccncc3n2)cc1`, the TGI in the test on A498 renal, in the test on ACHN renal, in the test with HOP-92 NSCLC, with K-562 leukemia, in the test on M14 melanoma and in the test on MALME-3M melanoma was greater than 100 µM in each case. The TGI in the test with NCI/ADR-RES ovarian, with SK-MEL-2 melanoma and in the test with UO-31 renal was greater than 100 µM throughout.

For `COC(=O)c1c(OC(C)=O)ccc2c1c1c(OC(C)=O)c3ccccc3c(OC(C)=O)c1n2Cc1ccccc1`, the TGI is 43.8 µM with A498 renal; 47.1 µM in the test with ACHN renal; 3.27 µM with HOP-92 NSCLC; greater than 50 µM with K-562 leukemia; 17.2 µM with M14 melanoma; 22.6 µM in the test with MALME-3M melanoma. Besides, the TGI amounted to 46.6 µM with NCI/ADR-RES ovarian, 6.81 µM with SK-MEL-2 melanoma and 24.7 µM in the test on UO-31 renal.

On to `COc1ccc2oc(=N)c(C(=O)Nc3ccccn3)cc2c1`, for which the TGI in the test with A498 renal, in the test on ACHN renal, with HOP-92 NSCLC, in the test on K-562 leukemia, in the test with M14 melanoma and in the test with MALME-3M melanoma was greater than 100 µM in each case. The TGI with NCI/ADR-RES ovarian, with SK-MEL-2 melanoma and with SW-620 colon was greater than 100 µM throughout.

In the case of `O=C1NC(=S)N(c2ccccc2)C1=O`, the TGI in the test with A498 renal, with ACHN renal, with HOP-92 NSCLC, in the test with K-562 leukemia, in the test on MALME-3M melanoma and with NCI/ADR-RES ovarian was greater than 100 µM each time. Also, the TGI with SK-MEL-2 melanoma, in the test with SW-620 colon and in the test with UO-31 renal was greater than 100 µM each time.

Consider `COc1cccc(NC(=O)C(C#N)=C(SC)SC)c1`, for which the TGI with A498 renal, in the test with ACHN renal, in the test with HOP-92 NSCLC, in the test with K-562 leukemia, with M14 melanoma and in the test on MALME-3M melanoma was greater than 100 µM in each case. The TGI in the test with NCI/ADR-RES ovarian, with SK-MEL-2 melanoma and in the test on SW-620 colon was greater than 100 µM each time.
